The conditions of series [1]: amide bond, pyridine/DMF.
For series [2] the following is noted: the molecule shown is the open-chain precursor; amide bond; 20-membered ring; ONp active ester (from TFA-ONp)/pyridine; pyridine/DMF; 5.2 mM; 50.0 °C; 3 steps.

Read-outs that look alike come from different tables or passages of the source.

As for `COC(=O)[C@@H]1CCCCNC(=O)CCC(=O)N[C@@H](CC(N)=O)C(=O)N[C@@H](CC(C)C)C(=O)N[C@@H](COCc2ccccc2)C(=O)N[C@@H]([C@@H](C)OCc2ccccc2)C(=O)N1` [-COCH2 CH2 Co-Asn-Leu-Ser(Bzl)-Thr(Bzl)-Lys--OCH3], the ring closure, isolated yield in series [1] (from H-Asn-Leu-Ser(Bzl)-Thr(Bzl)-Lys(COCH2CH2CO-ONp)-OMe, 23-membered ring, TFA-ONp/pyridine, TFA, pyridine, 55.0 °C, 3 steps) came to 34.9%. In series [1] (from H-Acp-Asn-Leu-Ser(Bzl)-Thr(Bzl)-Asp(ONp)-OEt, 23-membered ring, TFA-ONp/pyridine, TFA, pyridine, 55.0 °C, 3 steps), `CCOC(=O)[C@@H]1CC(=O)NCCCCCC(=O)N[C@@H](CC(N)=O)C(=O)N[C@@H](CC(C)C)C(=O)N[C@@H](COCc2ccccc2)C(=O)N[C@@H]([C@@H](C)OCc2ccccc2)C(=O)N1` [H-Acp-Asn-Leu-Ser(Bzl)-Thr(Bzl)-Asp(ONp)-OEt] had a ring closure, isolated yield of 26.6%. As to `COC(=O)[C@@H]1CCC(=O)NCCCCCC(=O)N[C@@H](CC(N)=O)C(=O)N[C@@H](CC(C)C)C(=O)N[C@@H](COCc2ccccc2)C(=O)N[C@@H]([C@@H](C)OCc2ccccc2)C(=O)N1` [H-Acp-Asn-Leu-Ser(Bzl)-Thr(Bzl)-Glu(ONp)-OMe], the ring closure, isolated yield in series [1] (from H-Acp-Asn-Leu-Ser(Bzl)-Thr(Bzl)-Glu(ONp)-OMe, 24-membered ring, TFA-ONp/pyridine, TFA, pyridine, 55.0 °C, 3 steps) worked out at 45.9%. Regarding `CCOC(=O)[C@@H]1CC(=O)NCC(=O)N[C@@H](COCc2ccccc2)C(=O)N[C@@H](CC(N)=O)C(=O)N[C@@H](CC(C)C)C(=O)N[C@@H](COCc2ccccc2)C(=O)N[C@@H]([C@@H](C)OCc2ccccc2)C(=O)N1` [H-Gly-Ser(Bzl)-Asn-Leu-Ser(Bzl)-Thr(Bzl)-Asp(ONp)-OEt], the ring closure, isolated yield in series [1] (from H-Gly-Ser(Bzl)-Asn-Leu-Ser(Bzl)-Thr(Bzl)-Asp(ONp)-OEt, 22-membered ring, TFA-ONp/pyridine, TFA, pyridine, 55.0 °C, 3 steps) turned out to be 61.3%. On to `COC(=O)[C@@H]1CSCC(=O)N[C@@H](COCc2ccccc2)C(=O)N[C@@H](CC(N)=O)C(=O)N[C@@H](CC(C)C)C(=O)N[C@@H](COCc2ccccc2)C(=O)N[C@@H]([C@@H](C)OCc2ccccc2)C(=O)N1` [H-Ser(Bzl)-Asn-Leu-Ser(Bzl)-Thr(Bzl)-Cmc(ONp)-OMe], for which the ring closure, isolated yield in series [1] (from H-Ser(Bzl)-Asn-Leu-Ser(Bzl)-Thr(Bzl)-Cmc(ONp)-OMe, 21-membered ring, TFA-ONp/pyridine, TFA, pyridine, 55.0 °C, 3 steps) turned out to be 41%. Regarding `COC(=O)[C@@H]1CSCCCC(=O)N[C@@H](COCc2ccccc2)C(=O)N[C@@H](CC(N)=O)C(=O)N[C@@H](CC(C)C)C(=O)N[C@@H](COCc2ccccc2)C(=O)N[C@@H]([C@@H](C)OCc2ccccc2)C(=O)N1` [H-Ser(Bzl)-Asn-Leu-Ser(Bzl)-Thr(Bzl)-Cpc(ONp)-OMe], the ring closure, isolated yield in series [1] (from H-Ser(Bzl)-Asn-Leu-Ser(Bzl)-Thr(Bzl)-Cpc(ONp)-OMe, 23-membered ring, TFA-ONp/pyridine, TFA, pyridine, 55.0 °C, 3 steps) was 55.9%. In the case of `COC(=O)[C@@H]1CCCCNC(=O)CCC(=O)N[C@@H](COCc2ccccc2)C(=O)N[C@@H](CC(N)=O)C(=O)N[C@@H](CC(C)C)C(=O)N[C@@H](COCc2ccccc2)C(=O)N[C@@H]([C@@H](C)OCc2ccccc2)C(=O)N1` [H-Ser(Bzl)-Asn-Leu-Ser(Bzl)-Thr(Bzl)-Lys(COCH2CH2CO-ONp)-OMe], the ring closure, isolated yield in series [1] (from H-Ser(Bzl)-Asn-Leu-Ser(Bzl)-Thr(Bzl)-Lys(COCH2CH2CO-ONp)-OMe, 26-membered ring, TFA-ONp/pyridine, TFA, pyridine, 2.6 mM, 55.0 °C, 3 steps) came to 55.5%. `COC(=O)[C@@H]1CCC(=O)NCCC(=O)N[C@@H](COCc2ccccc2)C(=O)N[C@@H](CC(N)=O)C(=O)N[C@@H](CC(C)C)C(=O)N[C@@H](COCc2ccccc2)C(=O)N[C@@H]([C@@H](C)OCc2ccccc2)C(=O)N1` [H-βAla-Ser(Bzl)-Asn-Leu-Ser(Bzl)-Thr(Bzl)-Glu(ONp)-OMe] yielded a ring closure, isolated yield in series [1] (from H-βAla-Ser(Bzl)-Asn-Leu-Ser(Bzl)-Thr(Bzl)-Glu(ONp)-OMe, 24-membered ring, TFA-ONp/pyridine, TFA, pyridine, 55.0 °C, 3 steps) of 68.1%. In the case of “H-Gly-Ser(Bzl)-Asn-Leu-Ser(Bzl)-Thr(Bzl)-Glu(ONp)-OBzl?”, in series [1] (the molecule shown is the open-chain precursor, 23-membered ring, p-nitrophenyl ester (from TFA-ONp)/pyridine, 1.2 mM, 50.0 °C, 3 steps), the ring closure, isolated yield came out at 50.7%.

“H-Ser(Bzl)-Asn-Leu-Ser(Bzl)-Thr(Bzl)-4-CPA(ONp)-OMe?” yielded a ring closure, isolated yield in series [1] (the molecule shown is the open-chain precursor, 23-membered ring, p-nitrophenyl ester (from TFA-ONp)/pyridine, 1.33 mM, 50.0 °C, 3 steps) of 53.8%. “H-Ser(Bzl)-Asn-Leu-Ser(Bzl)-Thr(Bzl)-Glu(ONp)-OBzl?”: the ring closure, crude yield in series [2] was found to be 62.7%. Turning to “H-Ser(Bzl)-Asn-Leu-Ser(Bzl)-Thr(Bzl)-Tyr(CH2CO-ONp)-OMe”, the ring closure, isolated yield in series [1] (the molecule shown is the open-chain precursor, 25-membered ring, TFA-ONp/pyridine, TFA, pyridine, then N2H4, 55.0 °C, 4 steps) came out at 43.8%. The molecule “H-bAla-Ser(Bzl)-Asn-Leu-Ser(Bzl)-Thr(Bzl)-Asp(ONp)-OEt?” displayed a ring closure, isolated yield in series [1] (the molecule shown is the open-chain precursor, 23-membered ring, p-nitrophenyl ester (from TFA-ONp)/pyridine, 4.6 mM, 50.0 °C, 3 steps) of 49.5%.

Source of the values: patent US5162305.
